Measurements as given in patent US20220323795A1, “COMBINATION OF CICLOPIROXOLAMINE AND PIROCTONE OLAMINE FOR COMBATING DANDRUFF” (PIERRE FABRE DERMO-COSMETIQUE, priority 2019, published 2022).
Like-named read-outs stand apart in the source and are kept apart here.

What was measured:
M. globosa (IP2387.96) [1] = assay: Minimum inhibitory concentration (MIC) by micromethod in liquid medium; type: cell-based, Malassezia globosa; settings: product alone
Description: (§1) The strains originate from the collection of the Institut Pasteur (Fungi collection, Paris France) for M. globosa (IP2387.96) and from the collection of CBS-KNAW for M. restricta (CBS7877). These strains represent and correspond to the majority of strains involved in dandruff. The strains are incubated for 5 days at 30° C. on modified Dixon agar under aerobic conditions. The inoculation suspensions are prepared in sterile distilled water and are concentrated to 10^7 CFU/ml. The determination of the minimum inhibitory concentration (MIC) is performed by micromethod in a liquid medium. 100 μl of liquid culture medium is deposited in each well of a sterile 96-well microplate. 100 μl of the solutions to be tested is deposited in the first well of a line of the plate. Dilutions by a factor of 2 are then carried out for wells 1 to 10. The test suspensions of each microorganism are prepared immediately before use in Tryptone salt. 100 μl is deposited in each well of a second microplate, with the exception of column 11. All of the first plate is inoculated using a Denley multipoint inoculate, from the second microplate. After incubation, the MIC are defined as the largest dilution with the absence of visible growth. Columns 11 and 12 serve respectively as a negative and positive control for growth.
(§2) The products tested are: • ciclopiroxolamine, at 3% (wt/wt) with sterile distilled water, • piroctone olamine at 0.3% (wt/wt) with 10% ethanol, • ketoconazole (positive control) at 1000 μg/ml (wt/wt) with 10% DMSO, • piroctone olamine/ciclopiroxolamine combinations, with respective concentrations of 0.15% and 0.75%.
(§3) The solutions are prepared at the time of the test and used immediately. An ethanol control was produced, solution at 10%.
(§4) The synergistic effect of two products is determined by calculating the synergy index (FIC, Fractional Inhibitory Concentration).
(§5) FIC Index=(MIC product A combined)/(MIC product alone)+(MIC product B combined)/(MIC product B alone).
(§6) The maximum test concentration corresponds to the concentration of the parent solution/2.

M. globosa (IP2387.96) [2] = assay: Minimum fungicide concentration (MFC) by subculturing the MIC microplates on agar medium; type: cell-based, Malassezia globosa; settings: product alone
Description: as §1, §2
(§7) The determination of the minimum fungicide concentrations (MFC) is carried out by subculturing the MIC microplates on agar medium, using the Denley multipoint inoculator. After incubation, the MFC are defined as the largest dilution with the absence of visible growth. All the tests were carried out in duplicate.

M. restricta (CBS7877) [3] = assay: Minimum inhibitory concentration (MIC) by micromethod in liquid medium; type: cell-based, Malassezia restricta
Description: as §1, §2, §3, §4, §5, §6

M. restricta (CBS7877) [4] = assay: Minimum fungicide concentration (MFC) by subculturing the MIC microplates on agar medium; type: cell-based, Malassezia restricta
Description: as §1, §2, §7

Malassezia globosa = assay: Fungicidal activity, log reduction of colonies after contact time; type: cell-based; settings: PO 0.3%, CPO 1.5%, ketoconazole 2%, PO/CPO 0.3%/1.5%, 10^7 CFU/ml
Description: (§8) The products to be tested alone and combined at the defined concentrations are placed in contact with a suspension of Malassezia containing 10^7 CFU/ml for a contact time of 5 minutes, 15 minutes and 30 minutes. After each contact time, a sample is taken, then diluted and filtered on a cellulose membrane. Each membrane is then deposited on the agar medium (Dixon) and incubated at 30° C. After incubation, the colonies are counted.
(§9) The products tested are: • ciclopiroxolamine, at 1.5% (wt/wt) diluted with sterile distilled water, • piroctone olamine at 0.3% (wt/wt) dissolved in ethanol, then addition of water for injectable preparations (final ethanol concentration of 9%), • ketoconazole (positive control) at 2% (wt/wt) dissolved in DMSO, then addition of water for injectable preparations (final concentration of DMSO 9%). • piroctone olamine/ciclopiroxolamine combinations, with respective concentrations of 0.3% and 1.5%.
(§10) The solutions are prepared at the time of the test and used immediately.

Malassezia restricta = assay: as above; type: cell-based; settings: PO 0.3%, CPO 1.5%, ketoconazole 2%, PO/CPO 0.3%/1.5%, 10^7 CFU/ml
Description: as §8, §9, §10

[5] = Malassezia globosa, read-out: MIC
[6] = Malassezia globosa, read-out: MFC
[7] = Malassezia restricta, CBS7877, product alone, read-out: MIC
[8] = Malassezia restricta, CBS7877, product alone, read-out: MFC

| MIC (M. globosa (IP2387.96) [1]; [5]) [µg/mL] | MIC (M. globosa (IP2387.96) [1]; % (wt/wt)) | MIC (M. restricta (CBS7877) [3]; [7]) [µg/mL] | MIC (M. restricta (CBS7877) [3]; product alone, % (wt/wt)) | MIC (M. globosa (IP2387.96) [1]) [µg/mL] | MIC (M. restricta (CBS7877) [3]; product alone) [µg/mL] | Compound | MFC (M. globosa (IP2387.96) [2]; [6]) [µg/mL] | MFC (M. globosa (IP2387.96) [2]; % (wt/wt)) | MFC (M. restricta (CBS7877) [4]; [8]) [µg/mL] | MFC (M. restricta (CBS7877) [4]; product alone, % (wt/wt)) | Log Reduction (Malassezia globosa; contact time 5 minutes) | Log Reduction (Malassezia globosa; contact time 15 minutes) | Log Reduction (Malassezia globosa; contact time 30 minutes) | Log Reduction (Malassezia restricta; contact time 5 minutes) | Log Reduction (Malassezia restricta; contact time 15 minutes) | Log Reduction (Malassezia restricta; contact time 30 minutes) | MFC (M. globosa (IP2387.96) [2]) [µg/mL] | MFC (M. restricta (CBS7877) [4]; product alone) [µg/mL] |
| --- | --- | --- | --- | --- | --- | --- | --- | --- | --- | --- | --- | --- | --- | --- | --- | --- | --- | --- |
| 29 | 2.9 × 10^−3% | 15 | 1.5 × 10^−3% |  |  | Cc1cc(C2CCCCC2)n(O)c(=O)c1 [CPO, ciclopiroxolamine] | 29 | 2.9 × 10^−3% | 15 | 1.5 × 10^−3% | 2.45 | 3.88 | >4.22 | 1.99 | 3.3 | >4.17 |  |  |
| 0.98 |  | 0.49 |  |  |  | CC(=O)N1CCN(c2ccc(OCC3COC(Cn4ccnc4)(c4ccc(Cl)cc4Cl)O3)cc2)CC1 (centres unmarked) [Keto, ketoconazole] | 1.94 |  | 0.49 to 0.98 |  | 1.47 | 1.29 | 1.19 | 0.85 | 1.12 | 1.09 |  |  |
|  | 2.3 × 10^−3% |  | 2.3 × 10^−3% | 23 | 23 | Cc1cc(CC(C)CC(C)(C)C)n(O)c(=O)c1.NCCO (centres unmarked) [PO, piroctone olamine] |  | 2.3 × 10^−3% |  | 2.3 × 10^−3% | 0.36 | 0.61 | 1.24 | 1.19 | 1.28 | 1.73 | 23 | 23 |
